Results taken from patent US7563886B2, “Nucleoside releasing functional unit through oxidation and process for producing oligonucleotide containing thereof” (Japan Science and Technology Agency, priority 2003, dated 2009).

What was measured:
[1] = Measurement of oxidation potential (E1/2); format: physicochemical; conditions: vs. NHE; 100 mM LiClO4 solution, room temperature
Description: The oxidation potential (E1/2) of benzoyl-^edaG was measured in 100 mM LiClO4 solution at room temperature by ALS electrochemical analyzer model 660-A. The scanning speed was 100 mV/sec. A glass carbon electrode was used as a sample electrode; a platinum wire as a counter electrode; and SCE as a reference electrode.

[2] = Photooxidation of single-stranded oligonucleotide, irradiation at 366 nm in the presence of riboflavin; format: physicochemical; conditions: single-stranded ODN, irradiated at 366 nm in the presence of riboflavin
Source text: The inventors conducted photooxidization of the oligonucleotide (7) containing benzoyl-^edaG (^Bz-edaG), for example, 5′-d(TATAAT^Bz-edaGTAATAT)-3′.
The single-stranded oligonucleotide (ODN) 5′-d(TATAAT^edaGTAATAT)-3′ was irradiated at 366 nm in the presence of riboflavin.

[3] = Oxidation with sodium hexachloroiridate(IV); conditions: in 15 minutes

Substance | oxidation potential (E1/2) [1] | t1/2 of decomposition [2] | decomposed at the site of the modified edaG [3]
benzoyl-^edaG [^Bz-edaG] | 0.59 V | – | –
5′-d(TATAAT^edaGTAATAT)-3′ | – | 6.2 min | –
5′-d(TATAAT^Bz-edaGTAATAT)-3′ | – | 6.2 min | 57%
